According to the NIST ThermoML archive (doi:10.1021/je400486p):
Numbers after ± are expanded uncertainties.

Tests used:
[1] = 101.3 kPa, Liquid; for viscosity: Concentric cylinders viscometry; for mass density: Vibrating tube method
[2] = refractive index (Na D-line) (dimensionless); details: 101.33 kPa, Liquid, Standard Abbe refractometry
[3] = xn = mol fraction of the nth substance listed; details: 101.3 kPa, Liquid, x1 = 1; for viscosity: Concentric cylinders viscometry; for mass density: Vibrating tube method
[4] = refractive index (Na D-line) (dimensionless); xn = mol fraction of the nth substance listed; details: 101.3 kPa, Liquid, Standard Abbe refractometry, x1 = 1

COCCOCCOCCOCCOC [2,5,8,11,14-pentaoxapentadecane]
viscosity ([1]; 288.15 K): 4.341 ± 0.051 mPa·s
mass density ([1]; 288.15 K): 1015.63 ± 0.24 kg/m3
viscosity ([1]; 293.15 K): 3.834 ± 0.045 mPa·s
mass density ([1]; 293.15 K): 1011 ± 0.24 kg/m3
viscosity ([1]; 298.15 K): 3.38 ± 0.04 mPa·s
mass density ([1]; 298.15 K): 1006.36 ± 0.23 kg/m3
viscosity ([1]; 303.15 K): 3.004 ± 0.036 mPa·s
mass density ([1]; 303.15 K): 1001.73 ± 0.23 kg/m3
viscosity ([1]; 308.15 K): 2.691 ± 0.032 mPa·s
mass density ([1]; 308.15 K): 997.104 ± 0.23 kg/m3
viscosity ([1]; 313.15 K): 2.426 ± 0.029 mPa·s
mass density ([1]; 313.15 K): 992.481 ± 0.23 kg/m3
viscosity ([1]; 318.15 K): 2.199 ± 0.026 mPa·s
mass density ([1]; 318.15 K): 987.859 ± 0.23 kg/m3
viscosity ([1]; 323.15 K): 2.006 ± 0.024 mPa·s
mass density ([1]; 323.15 K): 983.234 ± 0.23 kg/m3
refractive index ([2]; 288.15 K): 1.4345 ± 0.00037
refractive index ([2]; 293.15 K): 1.43238 ± 0.00037
refractive index ([2]; 298.15 K): 1.43027 ± 0.00037
refractive index ([2]; 303.15 K): 1.42815 ± 0.00037
refractive index ([2]; 308.15 K): 1.42603 ± 0.00037
refractive index ([2]; 313.15 K): 1.42394 ± 0.00037
refractive index ([2]; 318.15 K): 1.42183 ± 0.00037
refractive index ([2]; 323.15 K): 1.41973 ± 0.00037

CN1CCCC1=O [N-methylpyrrolidone]
viscosity ([1]; 288.15 K): 1.99 ± 0.023 mPa·s
mass density ([1]; 288.15 K): 1037.3 ± 0.26 kg/m3
viscosity ([1]; 293.15 K): 1.823 ± 0.021 mPa·s
mass density ([1]; 293.15 K): 1032.84 ± 0.26 kg/m3
viscosity ([1]; 298.15 K): 1.679 ± 0.019 mPa·s
mass density ([1]; 298.15 K): 1028.38 ± 0.25 kg/m3
viscosity ([1]; 303.15 K): 1.555 ± 0.018 mPa·s
mass density ([1]; 303.15 K): 1023.92 ± 0.25 kg/m3
viscosity ([1]; 308.15 K): 1.444 ± 0.017 mPa·s
mass density ([1]; 308.15 K): 1019.46 ± 0.24 kg/m3
viscosity ([1]; 313.15 K): 1.346 ± 0.016 mPa·s
mass density ([1]; 313.15 K): 1015 ± 0.24 kg/m3
viscosity ([1]; 318.15 K): 1.259 ± 0.015 mPa·s
mass density ([1]; 318.15 K): 1010.53 ± 0.24 kg/m3
viscosity ([1]; 323.15 K): 1.182 ± 0.014 mPa·s
mass density ([1]; 323.15 K): 1006.06 ± 0.23 kg/m3
refractive index ([2]; 288.15 K): 1.47166 ± 0.00037
refractive index ([2]; 293.15 K): 1.46952 ± 0.00037
refractive index ([2]; 298.15 K): 1.46736 ± 0.00037
refractive index ([2]; 303.15 K): 1.4652 ± 0.00037
refractive index ([2]; 308.15 K): 1.46306 ± 0.00037
refractive index ([2]; 313.15 K): 1.46095 ± 0.00037
refractive index ([2]; 318.15 K): 1.45891 ± 0.00037
refractive index ([2]; 323.15 K): 1.4568 ± 0.00037

CCC(C)O (stereo not given) [butan-2-ol]
viscosity ([1]; 288.15 K): 4.29 ± 0.047 mPa·s
mass density ([1]; 288.15 K): 810.654 ± 0.14 kg/m3
viscosity ([1]; 293.15 K): 3.576 ± 0.039 mPa·s
mass density ([1]; 293.15 K): 806.62 ± 0.14 kg/m3
viscosity ([1]; 298.15 K): 2.954 ± 0.033 mPa·s
mass density ([1]; 298.15 K): 802.502 ± 0.14 kg/m3
viscosity ([1]; 303.15 K): 2.469 ± 0.028 mPa·s
mass density ([1]; 303.15 K): 798.302 ± 0.14 kg/m3
viscosity ([1]; 308.15 K): 2.08 ± 0.024 mPa·s
mass density ([1]; 308.15 K): 794.003 ± 0.14 kg/m3
viscosity ([1]; 313.15 K): 1.766 ± 0.02 mPa·s
mass density ([1]; 313.15 K): 789.609 ± 0.14 kg/m3
viscosity ([1]; 318.15 K): 1.512 ± 0.017 mPa·s
mass density ([1]; 318.15 K): 785.109 ± 0.15 kg/m3
viscosity ([1]; 323.15 K): 1.303 ± 0.015 mPa·s
mass density ([1]; 323.15 K): 780.499 ± 0.15 kg/m3
refractive index ([2]; 288.15 K): 1.39959 ± 0.00033
refractive index ([2]; 293.15 K): 1.39748 ± 0.00033
refractive index ([2]; 298.15 K): 1.39534 ± 0.00033
refractive index ([2]; 303.15 K): 1.39314 ± 0.00033
refractive index ([2]; 308.15 K): 1.39086 ± 0.00033
refractive index ([2]; 313.15 K): 1.38851 ± 0.00033
refractive index ([2]; 318.15 K): 1.38617 ± 0.00033
refractive index ([2]; 323.15 K): 1.38372 ± 0.00033

CCC(C)O (stereo not given) [butan-2-ol] + CN1CCCC1=O
viscosity ([3]; 288.15 K): 4.29 ± 0.051 mPa·s
mass density ([3]; 288.15 K): 810.654 ± 0.14 kg/m3
viscosity ([3]; 293.15 K): 3.576 ± 0.042 mPa·s
mass density ([3]; 293.15 K): 806.62 ± 0.14 kg/m3
viscosity ([3]; 298.15 K): 2.954 ± 0.035 mPa·s
mass density ([3]; 298.15 K): 802.502 ± 0.14 kg/m3
viscosity ([3]; 303.15 K): 2.469 ± 0.03 mPa·s
mass density ([3]; 303.15 K): 798.302 ± 0.14 kg/m3
viscosity ([3]; 308.15 K): 2.08 ± 0.025 mPa·s
mass density ([3]; 308.15 K): 794.003 ± 0.14 kg/m3
viscosity ([3]; 313.15 K): 1.766 ± 0.022 mPa·s
mass density ([3]; 313.15 K): 789.609 ± 0.14 kg/m3
viscosity ([3]; 318.15 K): 1.512 ± 0.019 mPa·s
mass density ([3]; 318.15 K): 785.109 ± 0.15 kg/m3
viscosity ([3]; 323.15 K): 1.303 ± 0.016 mPa·s
mass density ([3]; 323.15 K): 780.499 ± 0.15 kg/m3
refractive index ([4]; 288.15 K): 1.39959 ± 0.00033
refractive index ([4]; 293.15 K): 1.39748 ± 0.00033
refractive index ([4]; 298.15 K): 1.39534 ± 0.00033
refractive index ([4]; 303.15 K): 1.39314 ± 0.00033
refractive index ([4]; 308.15 K): 1.39086 ± 0.00033
refractive index ([4]; 313.15 K): 1.38851 ± 0.00033
refractive index ([4]; 318.15 K): 1.38617 ± 0.00033
refractive index ([4]; 323.15 K): 1.38372 ± 0.00033

CCC(C)O (stereo not given) [butan-2-ol] + COCCOCCOCCOCCOC
viscosity ([3]; 288.15 K): 4.29 ± 0.047 mPa·s
mass density ([3]; 288.15 K): 810.654 ± 0.14 kg/m3
viscosity ([3]; 293.15 K): 3.576 ± 0.039 mPa·s
mass density ([3]; 293.15 K): 806.62 ± 0.14 kg/m3
viscosity ([3]; 298.15 K): 2.954 ± 0.033 mPa·s
mass density ([3]; 298.15 K): 802.502 ± 0.14 kg/m3
viscosity ([3]; 303.15 K): 2.469 ± 0.028 mPa·s
mass density ([3]; 303.15 K): 798.302 ± 0.14 kg/m3
viscosity ([3]; 308.15 K): 2.08 ± 0.024 mPa·s
mass density ([3]; 308.15 K): 794.003 ± 0.14 kg/m3
viscosity ([3]; 313.15 K): 1.766 ± 0.02 mPa·s
mass density ([3]; 313.15 K): 789.609 ± 0.14 kg/m3
viscosity ([3]; 318.15 K): 1.512 ± 0.017 mPa·s
mass density ([3]; 318.15 K): 785.109 ± 0.15 kg/m3
viscosity ([3]; 323.15 K): 1.303 ± 0.015 mPa·s
mass density ([3]; 323.15 K): 780.499 ± 0.15 kg/m3
refractive index ([4]; 288.15 K): 1.39959 ± 0.00033
refractive index ([4]; 293.15 K): 1.39748 ± 0.00033
refractive index ([4]; 298.15 K): 1.39534 ± 0.00033
refractive index ([4]; 303.15 K): 1.39314 ± 0.00033
refractive index ([4]; 308.15 K): 1.39086 ± 0.00033
refractive index ([4]; 313.15 K): 1.38851 ± 0.00033
refractive index ([4]; 318.15 K): 1.38617 ± 0.00033
refractive index ([4]; 323.15 K): 1.38372 ± 0.00033
